The record followed here is patent US20240299321A1, “METHODS TO SENSITIZE CANCER CELLS AND STANDARDIZED SCREENING ASSAY FOR IMMUNOTHERAPY” (THE TRUSTEES OF INDIANA UNIVERSITY, priority 2020, published 2024).

Data set [1] deals with OVA-specific CD8+ T cells. Nature of the data set: T cell effector function in EO771 organoid co-culture. The data set is classed as cell-based, mouse. The following applies: for IFNγ, GZMB and TNFα expression levels in the co-cultured CD8+ T cells: co-cultured with drug-treated tumor organoids; for secreted IFNγ and TNFα (ELISA): vs T cells co-cultured with untreated organoids. As for the experimental part: (§1) T cell effector function analysis: We measured cytokine and cytolytic granule production (IFNγ, GZMB and TNFα) of CD8+ T cells from mouse tumor samples and tumor organoid-T cell co-culture. Briefly, CD8+ T cells were placed into the 24-well plate at 1×10^6 cells/well, stimulated with 1 μM ionomycin and 50 ng ml-1 phorbol 12-myristate 13-acetate (PMA) (Sigma-Aldrich) for 4 h, in the presence of 5 μg ml-1 Brefeldin A (BFA), with the purpose to amplify the expression of intracellular cytokines61. The cells were stained with APC/Cy7-conjugated anti-CD8a (Biolegend) for 15 min and then fixed by 4% PFA. After washing, cells were stained with PerCP/Cy7-conjugated anti-GZMB, APC-conjugated anti-IFNγ and PE-conjugated anti-TNFα (Biolegend) for 15 min. In flow cytometric analyses, T cells stained with isotype control antibodies were used as negative controls for gating the cytokine or granule-producing cells. For T cells from tumor organoid-T cell co-culture, tumor organoids were first digested into single cells with TrypLE Express at 37° C. before APC/Cy7-conjugated anti-CD8a staining. In the IFNγ and TNFα secretion assay (Biolegend), T cells were stimulated with ionomycin and PMA without the presence of BFA. The media were collected for ELISA assay.
In general terms: In an ELISA, binding on a coated surface is turned into a signal by an enzyme label.

Data set [2] has as its system EO771 (Luc+OVA+) tumor organoids. Nature of the data set: EO771 tumor organoid and OVA-specific CD8+ T cell co-culture cytotoxicity. The data set is classed as cell-based, mouse. The following applies: for outcome of combined 2D co-culture, tumor organoid co-culture and antigen presentation screens: 1 μM, 48 h treatment; for organoid dissociation / tumor cell death rates: co-culture with T cells. From the text:
In accordance with the present disclosure a drug screen platform was used to identify epigenetic inhibitors that increase a cancer cell's sensitivity to CD8+ T-cell cytotoxicity. In one embodiment the drug screen platform is composed of breast tumor organoids and tumor-specific CD8+ T cells. A lentiviral vector expressing OVA was transduced to the Luc+EO771 cells. The resulting OVA+ cells were orthotopically transplanted to C57BL/6 mice to generate syngeneic mammary tumors. The tumors were harvested and dissociated to single cells for 2D culture and only the adherent cells were collected to generate tumor organoids. 2 ml of tumor organoid culture medium (2×10^5 cells per ml) were seeded into 6-well culture plate with ultra-low attachment surface. After 7-day culture, tumor organoids were filtered by cell strainers with nylon mesh between 70 and 150 μm. The tumor organoids with diameter between 70 and 150 μm were treated with drugs for 48 h in the matrigel-free medium. The treated tumor organoids were then co-cultured with the pre-activated and OVA-specific CD8+ T cells from OT-I mice in the breast organoid culture medium containing 10 ng ml-1 IL2 without matrigel for 24 h. The luciferase released from the EO771 cells was measured using a Dual-luciferase report assay system (Promega) on a BioTek Cytation5 imaging reader, to assess the T cell-mediated cytotoxicity effect.
Cytotoxicity of CD8+ T cells in the co-culture with tumor organoids We generated mouse EO771 (Luc+OVA+) cell line that presents OVA257-264 antigen (from chicken ovalbumin) and human MDA-MB-468 (NY-ESO-1+) cell line that presents NY-ESO-1 antigen for use in the T cell-mediated cytotoxicity assay. OVA-specific CD8+ T cells were isolated from the spleen of OT-I mouse that contains transgenic inserts of Tcra-V2 and Tcrb-V5 genes. The transgenic T cell receptor can recognize the ovalbumin peptide SIINFEKL (OVA257-264; SEQ ID NO: 55). Anti-NY-ESO-1 human CD8^+ T cells (CELLERO™) were used to recognize the NY-ESO-1+ MDA-MB-468 cells. Autologous human CD8+ T cells were isolated from patient tumor tissues and amplified in the DMEM/F12 medium supplemented with 10% FBS, 2 mM Ultraglutamine I, 1% penicillin/streptomycin and 10 ng mL-1 of human IL2 for 7 days. The CD8+ T cells were stimulated by the T-activator CD3/CD28 Dynabeads (Gibco, 11452D for mouse and 11131D for human) for 48 h prior to use for cytotoxicity assay. Mouse and human tumor organoids with diameter between 70 and 150 μm were collected and mixed with corresponding CD8+ T cells in DMEM/F12 medium supplemented with 10% FBS, 2 mM Ultraglutamine I, 1% penicillin/streptomycin and 10 ng mL-1 IL2 (Biolegend, mouse: 575402; human: 589102) at a ratio of organoids versus T cells at 1:200 in the microplates with ultra-low attachment surface. The cells were co-cultured for 24 h and subject to further analyses, such as optical and fluorescence imaging, luciferase assay or flow cytometry.
Epigenetic inhibitor screen on CD8+ T cell-mediated cytotoxicity: The epigenetic inhibitor library (Cayman chemical, Cat #11071, Batch #0522205, data not shown) was used for drug screen. Three different screen methods were conducted. In tumor organoid-T cell co-culture, EO771 (Luc+OVA+) tumor organoids with diameter between 70 and 150 μm were seeded with 100 organoids/well and treated with 1 μM of drug for 48 h. The tumor organoids were centrifuged at 100 rcf for 5 min. The medium were replaced with fresh T cell culture medium containing OVA-specific T cells. A total of 20,000 T cells were added in each well. After co-culture for 24 h, cytotoxicity of tumor cells was measured using a Dual-luciferase report 1000 assay system (Promega) in which luciferase expressed exclusively in the live EO771 (Luc+OVA+) cells was detected by a BioTek Cytation5 imaging reader. Low levels of luciferase from survived tumor cells refer to high cytotoxicity in the co-culture. […]

The test system of data set [3] is NY-ESO-1-specific CD8+ T cells. Nature of the data set: T cell effector function in MDA-MB-468 organoid co-culture. The class given is cell-based, human. The following applies: vs control groups; FIG. 2D. As for the experimental part:
as §1

Consider `c1ccc([C@@H]2C[C@H]2NC2CCNCC2)cc1` [GSK-LSD1], for which, in data set [1], the “IFNγ, GZMB and TNFα expression levels in the co-cultured CD8+ T cells” value (from here on “IFNγ, GZMB and TNFα expression levels”) is given as “remarkably up-regulated”; the “secreted IFNγ and TNFα (ELISA)” value was “much higher levels”. In data set [2], the “outcome of combined 2D co-culture, tumor organoid co-culture and antigen presentation screens” value (from here on “outcome of combined 2D co-culture”) is “increase the antigenicity of tumor cells and enhance their response to cytotoxic T cells”; the organoid dissociation result is reported as “greater organoid dissociation”; the “tumor cell death rates” value is reported as “higher tumor cell death rates”. For the same compound, in data set [3], the “GZMB, IFNγ and TNFα expression levels in the CD8+ T cells” value (from here on “GZMB, IFNγ and TNFα expression levels”) was “much higher”.
On to `C#Cc1cccc(Nc2ncnc3cc(OC)c(OCCCCCCC(=O)NO)cc23)c1` [CUDC-101], for which, in data set [1], the “IFNγ, GZMB and TNFα expression levels” value was “remarkably up-regulated”; the “secreted IFNγ and TNFα (ELISA)” value is given as “much higher levels”. In data set [2], the “outcome of combined 2D co-culture” value was “increase the antigenicity of tumor cells and enhance their response to cytotoxic T cells”; the organoid dissociation entry is “greater organoid dissociation”; the “tumor cell death rates” value is listed as “higher tumor cell death rates”. Also, the “GZMB, IFNγ and TNFα expression levels” value in data set [3] is given as “much higher”.
In the case of `Nc1ccccc1NC(=O)CCCCCCC(=O)Nc1ccccc1` [BML-210], in data set [1], the “IFNγ, GZMB and TNFα expression levels” value was “remarkably up-regulated”; the “secreted IFNγ and TNFα (ELISA)” value is recorded as “much higher levels”. In data set [2], the “outcome of combined 2D co-culture” value is “increase the antigenicity of tumor cells and enhance their response to cytotoxic T cells”; the organoid dissociation entry is “greater organoid dissociation”; the “tumor cell death rates” value was “higher tumor cell death rates”. For the same compound, the “promotion of T cell-mediated cytotoxicity after knockdown of B2M” value in data set [2] (shB2M OVA+ EO771 cells, FIG. 4G) is recorded as “completely abolished”. In addition, in data set [3], the “GZMB, IFNγ and TNFα expression levels” value is listed as “much higher”.
